{"source": "patent US9486507B2", "about": "“Pro-coagulant compounds and methods of use thereof” (priority 2011, dated 2016)", "key": {"FIXa [1]": {"target": "T1, FIXa (Homo sapiens, UniProt P00740)", "T1 sequence (P00740 47-191 limits assumed)": "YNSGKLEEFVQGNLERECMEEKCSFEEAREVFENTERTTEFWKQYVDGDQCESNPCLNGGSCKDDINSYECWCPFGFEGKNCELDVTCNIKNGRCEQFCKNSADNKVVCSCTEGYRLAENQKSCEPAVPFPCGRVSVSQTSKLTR", "T1 sequence (P00740 227-461 limits assumed)": "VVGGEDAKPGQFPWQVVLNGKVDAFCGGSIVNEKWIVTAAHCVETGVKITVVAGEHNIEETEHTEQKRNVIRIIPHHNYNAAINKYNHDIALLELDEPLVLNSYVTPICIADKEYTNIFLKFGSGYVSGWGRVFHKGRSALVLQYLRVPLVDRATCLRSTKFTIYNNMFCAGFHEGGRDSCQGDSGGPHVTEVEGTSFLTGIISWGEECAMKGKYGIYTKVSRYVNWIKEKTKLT", "assay": "Km/Kcat of FIXa for the substrate FX (FXa generation assay)", "format": "biochemical", "design": "purchased Haematologic Technologies", "experimental": "To determine the Km and Kcat of FIXa or FVIIa for the substrate FX, the FXa generation assay described above was used with the following modifications. […] Reactions were set up with varying concentrations of FX ranging between 400 and 0.8 nM and the rates of FXa generation were determined for each peptide at the different FX concentrations tested as described above. […] The catalytic constant (Kcat) was calculated by normalizing the Vmax to the enzyme concentration.\nFIXa was used at 10 nM, and FX was used at 10-1000 nM. The assay was performed in the presence of phospholipids (PL) and calcium chloride."}, "platelets": {"tested_on": "platelets", "assay": "Platelet aggregation (aggregometer)", "format": "cell-based", "from_the_text": "ADP was used as a positive control for platelet aggregation."}, "α-thrombin": {"target": "α-thrombin (Homo sapiens, UniProt P00734)", "assay": "Fibrin generation assay (thrombin activity)", "format": "biochemical", "conditions": "compound 5 1 uM; α-thrombin 0 or 0.1 IU/mL", "experimental": "The generation of fibrin was determined by measuring the absorbance at OD405 with the Biotek Synergy 2 multi-detection microplate reader."}, "FIXa [2]": {"target": "T1, FIXa", "assay": "Heparin accelerated FIXa-AT complex formation assay", "format": "biochemical", "design": "purchased Haematologic Technologies", "conditions": "with heparin, 0 min"}, "FVIIa": {"target": "T2, FVIIa (Homo sapiens, UniProt P08709)", "T2 construct": "The two-chain Factor VIIa is a polypeptide produced from FVII by hydrolysis of the Arg152-Ile153 peptide bond of FVII; purchased Haematologic Technologies", "T2 sequence (P08709 61-212 limits assumed)": "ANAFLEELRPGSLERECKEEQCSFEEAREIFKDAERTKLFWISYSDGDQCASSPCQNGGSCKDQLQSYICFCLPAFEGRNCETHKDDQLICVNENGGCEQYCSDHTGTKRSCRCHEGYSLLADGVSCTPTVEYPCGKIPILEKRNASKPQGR", "T2 sequence (P08709 213-466 limits assumed)": "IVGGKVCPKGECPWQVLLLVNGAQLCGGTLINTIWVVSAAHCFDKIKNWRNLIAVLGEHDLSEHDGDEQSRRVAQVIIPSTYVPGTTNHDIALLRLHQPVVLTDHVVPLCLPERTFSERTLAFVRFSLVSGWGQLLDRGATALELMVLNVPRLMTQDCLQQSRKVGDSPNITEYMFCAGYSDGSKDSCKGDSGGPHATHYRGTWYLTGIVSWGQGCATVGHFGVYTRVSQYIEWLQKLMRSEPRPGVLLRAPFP", "assay": "Km/Kcat of FVIIa for the substrate FX (FXa generation assay)", "format": "biochemical", "conditions": "presence vs absence of compound 5", "experimental": "Similarly, in order to measure the catalytic activity of FVIIa, a FXa generation assay measuring the ability of the compounds of the present disclosure to enhance the catalytic activity of FVIIa was established. The difference between the two assays was that the final concentration of 10 nM hFIXa was replaced with 10 nM hFVIIa. The remaining reagents and assay procedures described above were unchanged.\nTo determine the Km and Kcat of FIXa or FVIIa for the substrate FX, the FXa generation assay described above was used with the following modifications. A single peptide concentration was tested (typically one that gave the maximal rate of FXa generation) and the concentration of all assay components was similar to that described above with the exception of FX. Reactions were set up with varying concentrations of FX ranging between 400 and 0.8 nM and the rates of FXa generation were determined for each peptide at the different FX concentrations tested as described above. For each peptide assayed, the data were fitted to the following equation that gives the Michaelis-Menten constant (Km) and the Vmax for FIXa or FVIIa: v=Vmax [FX]/Km+[FX], wherein v is the rate of FXa generation determined as described above. The catalytic constant (Kcat) was calculated by normalizing the Vmax to the enzyme concentration."}, "[3]": {"tested_on": "purified recombinant human coagulation factors", "assay": "Thrombin generation assay using purified hemostatic components", "format": "biochemical"}, "[4]": {"conditions": "hFIXa 10 nM, FX 10-1000 nM, PL, CaCl2, compound 1 3 μM, compounds 3, 4, 5 1 μM, compound C 10 μM"}}, "data": [{"substance": "rRAPGKLTCLASYCWLFWTGIA [Compound 5]", "values": [{"measurement": "Km", "setting": "FIXa [1]; [4]", "value": "0.011 ± 0.0023", "unit": "µM"}, {"measurement": "kcat", "setting": "FIXa [1]; [4]", "value": 0.000298, "unit": "s⁻¹"}, {"measurement": "Δ kcat FIXa", "setting": "FIXa [1]; presence vs absence of compound 5", "value": 199}, {"measurement": "Δ kcat", "setting": "FIXa [1]; relative to buffer (1.0), compound 1 3 μM, compounds 3, 4, 5 1 μM, compound C 10 μM", "value": 199}, {"measurement": "effect on ADP-activated platelets", "setting": "platelets; 30 μM", "value": "only a moderate effect"}, {"measurement": "induction of platelet aggregation", "setting": "platelets; compound 5 about 30 μM, compound 22 10 μM and 30 μM", "value": "did not induce platelet aggregation"}, {"measurement": "effect on ADP-activated platelets", "setting": "platelets; concentration of up to 10 μM", "value": "did not exhibit a significant effect"}, {"measurement": "catalytic activity of thrombin (fibrin generation, OD405)", "setting": "α-thrombin", "value": "did not substantially increase the catalytic activity of thrombin directly"}, {"measurement": "% FIXa-AT complex formation", "setting": "FIXa [2]; Compound 5 0.1 μM", "value": 0, "unit": "%"}, {"measurement": "% FIXa-AT complex formation", "setting": "FIXa [2]; Compound 5 1 μM", "value": 0, "unit": "%"}, {"measurement": "% FIXa-AT complex formation", "setting": "FIXa [2]; Compound 5 10 μM", "value": 0, "unit": "%"}, {"measurement": "Δ kcat FVIIa", "setting": "FVIIa", "value": 2419}, {"measurement": "thrombin generation, FXIa dependence", "setting": "[3]; compound 5 1 μM, 0, 50% or 100% FXIa (FIG. 8)", "value": "dependent on the FXIa concentration"}, {"measurement": "thrombin generation, FIXa dependence", "setting": "[3]; compound 5 1 μM, 1%, 10% or 100% (3.1 μg/mL) FIXa (FIG. 7)", "value": "dependent on the FIXa concentration"}, {"measurement": "thrombin generation without FIX/FIXa", "setting": "[3]; compound 5 1 μM, FVII, FVIIa, TF, FV, FX, FII, ATIII, TFPI, platelets", "value": "enhanced thrombin generation in the absence of FIX/FIXa"}, {"measurement": "thrombin generation, dose dependence", "setting": "[3]; compound 5 at 1 nM, 10 nM, 100 nM, 1 μM, 2 μM (FIG. 6)", "value": "enhances thrombin generation in a dose-dependent manner"}, {"measurement": "thrombin generation", "setting": "[3]; compounds 1 μM, FVIII 0.1 or 1 IU/mL (FIG. 5)", "value": "induce thrombin generation"}]}]}
